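Assay format: 96-well plates, 48-hour exposure. GI50 is the concentration that inhibits growth by half. TGI: total growth inhibition.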
Tests used:
Experiment in all cases: NCI anticancer screen, dose series, 48 h
MOLT-4 leukemia = system: MOLT-4 leukemia
KM12 colon = system: KM12 colon
HOP-62 NSCLC = system: HOP-62 NSCLC
SN12C renal = system: SN12C renal
MCF7 breast = system: MCF7 breast
U251 CNS = system: U251 CNS
NCI-H23 lung = system: NCI-H23 lung
OVCAR-8 ovarian = system: OVCAR-8 ovarian
COLO 205 colon = system: COLO 205 colon
HCC-2998 colon = system: HCC-2998 colon
CCRF-CEM leukemia = system: CCRF-CEM leukemia
BT-549 breast = system: BT-549 breast
M14 melanoma = system: M14 melanoma
NCI-H226 lung = system: NCI-H226 lung
786-0 renal = system: 786-0 renal
ACHN renal = system: ACHN renal
UACC-62 melanoma = system: UACC-62 melanoma
HS 578T breast = system: HS 578T breast
SF-539 CNS = system: SF-539 CNS
NCI-H460 lung = system: NCI-H460 lung
EKVX NSCLC = system: EKVX NSCLC
MALME-3M melanoma = system: MALME-3M melanoma
SK-MEL-5 melanoma = system: SK-MEL-5 melanoma
SK-OV-3 ovarian = system: SK-OV-3 ovarian
CAKI-1 renal = system: CAKI-1 renal
UACC-257 melanoma = system: UACC-257 melanoma
SF-295 CNS = system: SF-295 CNS
RPMI-8226 leukemia = system: RPMI-8226 leukemia
MDA-MB-468 breast = system: MDA-MB-468 breast
RXF 393 renal = system: RXF 393 renal
SW-620 colon = system: SW-620 colon
SK-MEL-28 melanoma = system: SK-MEL-28 melanoma
OVCAR-5 ovarian = system: OVCAR-5 ovarian
SNB-75 CNS = system: SNB-75 CNS
TK-10 renal = system: TK-10 renal
MDA-MB-435 = system: MDA-MB-435
NCI-H522 lung = system: NCI-H522 lung
IGROV1 ovarian = system: IGROV1 ovarian
A549 NSCLC = system: A549 NSCLC
SR leukemia = system: SR leukemia
UO-31 renal = system: UO-31 renal
T-47D breast = system: T-47D breast
OVCAR-3 ovarian = system: OVCAR-3 ovarian
SF-268 CNS = system: SF-268 CNS
MDA-MB-231 breast = system: MDA-MB-231 breast
LOX IMVI melanoma = system: LOX IMVI melanoma
SK-MEL-2 melanoma = system: SK-MEL-2 melanoma
NCI/ADR-RES ovarian = system: NCI/ADR-RES ovarian
HCT-15 colon = system: HCT-15 colon
HL-60(TB) leukemia = system: HL-60(TB) leukemia
HOP-92 NSCLC = system: HOP-92 NSCLC
HCT-116 colon = system: HCT-116 colon
PC-3 prostate = system: PC-3 prostate
HT29 colon = system: HT29 colon
DU-145 prostate = system: DU-145 prostate
K-562 leukemia = system: K-562 leukemia
SNB-19 CNS = system: SNB-19 CNS
A498 renal = system: A498 renal
OVCAR-4 ovarian = system: OVCAR-4 ovarian

Compound CCN1CCN(c2ccc(NC(=O)Nc3ccc(-c4cc(C(=O)NC(C)C)c5ncccc5n4)cc3)cc2C(F)(F)F)CC1 has a GI50 (MOLT-4 leukemia) of 1110 nM, a TGI (MOLT-4 leukemia) of 30600 nM and a GI50 (KM12 colon) of 1010 nM. The TGI (KM12 colon) was 2910 nM, the GI50 (HOP-62 NSCLC) was 3830 nM and the TGI (HOP-62 NSCLC) was 8890 nM. It also gave a GI50 (SN12C renal) of 668 nM, a TGI (SN12C renal) of 1380 nM and a GI50 (MCF7 breast) of 631 nM. For the same compound, the TGI (MCF7 breast) was 1500 nM, the GI50 (U251 CNS) was 1240 nM and the TGI (U251 CNS) was 4820 nM. It also gave a GI50 (NCI-H23 lung) of 2050 nM, a TGI (NCI-H23 lung) of 7270 nM and a GI50 (OVCAR-8 ovarian) of 5690 nM. It also gave a TGI (OVCAR-8 ovarian) of 17500 nM, a GI50 (COLO 205 colon) of 931 nM and a TGI (COLO 205 colon) of 2710 nM. For the same compound, the GI50 (HCC-2998 colon) was 1440 nM, the TGI (HCC-2998 colon) was 5090 nM and the GI50 (CCRF-CEM leukemia) was 1010 nM. It also gave a TGI (CCRF-CEM leukemia) of 3100 nM, a GI50 (BT-549 breast) of 4830 nM and a TGI (BT-549 breast) of 9570 nM. It also gave a GI50 (M14 melanoma) of 723 nM, a TGI (M14 melanoma) of 1900 nM and a GI50 (NCI-H226 lung) of 5020 nM. The TGI (NCI-H226 lung) was 12500 nM, the GI50 (786-0 renal) was 497 nM and the TGI (786-0 renal) was 1030 nM. The GI50 (ACHN renal) was 1020 nM, the TGI (ACHN renal) was 3470 nM and the GI50 (UACC-62 melanoma) was 3990 nM. For the same compound, the TGI (UACC-62 melanoma) was 8280 nM, the GI50 (HS 578T breast) was 880 nM and the TGI (HS 578T breast) was 3450 nM. It also gave a GI50 (SF-539 CNS) of 534 nM, a TGI (SF-539 CNS) of 1020 nM and a GI50 (NCI-H460 lung) of 617 nM. It also gave a TGI (NCI-H460 lung) of 1180 nM, a GI50 (EKVX NSCLC) of 1610 nM and a TGI (EKVX NSCLC) of 5820 nM. It also gave a GI50 (MALME-3M melanoma) of 575 nM, a TGI (MALME-3M melanoma) of 1050 nM and a GI50 (SK-MEL-5 melanoma) of 1410 nM. For the same compound, the TGI (SK-MEL-5 melanoma) was 5280 nM, the GI50 (SK-OV-3 ovarian) was 5330 nM and the TGI (SK-OV-3 ovarian) was 10800 nM. For the same compound, the GI50 (CAKI-1 renal) was 804 nM, the TGI (CAKI-1 renal) was 2080 nM and the GI50 (UACC-257 melanoma) was 3450 nM. For the same compound, the TGI (UACC-257 melanoma) was 8110 nM, the GI50 (SF-295 CNS) was 581 nM and the TGI (SF-295 CNS) was 1140 nM. For the same compound, the GI50 (RPMI-8226 leukemia) was 1040 nM, the TGI (RPMI-8226 leukemia) was 34500 nM and the GI50 (MDA-MB-468 breast) was 766 nM. The TGI (MDA-MB-468 breast) was 1850 nM, the GI50 (RXF 393 renal) was 654 nM and the TGI (RXF 393 renal) was 1730 nM. It also gave a GI50 (SW-620 colon) of 637 nM, a TGI (SW-620 colon) of 1260 nM and a GI50 (SK-MEL-28 melanoma) of 752 nM. The TGI (SK-MEL-28 melanoma) was 1850 nM, the GI50 (OVCAR-5 ovarian) was 1600 nM and the TGI (OVCAR-5 ovarian) was 6090 nM. For the same compound, the GI50 (SNB-75 CNS) was 979 nM, the TGI (SNB-75 CNS) was 5140 nM and the GI50 (TK-10 renal) was 1350 nM. The TGI (TK-10 renal) was 4870 nM, the GI50 (MDA-MB-435) was 650 nM and the TGI (MDA-MB-435) was 1310 nM. For the same compound, the GI50 (NCI-H522 lung) was 3520 nM, the TGI (NCI-H522 lung) was 8430 nM and the GI50 (IGROV1 ovarian) was 1420 nM. The TGI (IGROV1 ovarian) was 5110 nM, the GI50 (A549 NSCLC) was 1140 nM and the TGI (A549 NSCLC) was 5770 nM. For the same compound, the GI50 (SR leukemia) was 1050 nM, the TGI (SR leukemia) was 12100 nM and the GI50 (UO-31 renal) was 2180 nM. The TGI (UO-31 renal) was 6810 nM, the GI50 (T-47D breast) was 1930 nM and the TGI (T-47D breast) was 8740 nM. The GI50 (OVCAR-3 ovarian) was 636 nM, the TGI (OVCAR-3 ovarian) was 1360 nM and the GI50 (SF-268 CNS) was 3560 nM. It also gave a TGI (SF-268 CNS) of 10900 nM, a GI50 (MDA-MB-231 breast) of 610 nM and a TGI (MDA-MB-231 breast) of 1180 nM. The GI50 (LOX IMVI melanoma) was 557 nM, the TGI (LOX IMVI melanoma) was 1050 nM and the GI50 (SK-MEL-2 melanoma) was 4820 nM. The TGI (SK-MEL-2 melanoma) was 9890 nM, the GI50 (NCI/ADR-RES ovarian) was 3660 nM and the TGI (NCI/ADR-RES ovarian) was 10000 nM. It also gave a GI50 (HCT-15 colon) of 667 nM, a TGI (HCT-15 colon) of 1350 nM and a GI50 (HL-60(TB) leukemia) of 1070 nM. It also gave a TGI (HL-60(TB) leukemia) of 5890 nM, a GI50 (HOP-92 NSCLC) of 3140 nM and a TGI (HOP-92 NSCLC) of 8290 nM. It also gave a GI50 (HCT-116 colon) of 638 nM, a TGI (HCT-116 colon) of 1300 nM and a GI50 (PC-3 prostate) of 760 nM. It also gave a TGI (PC-3 prostate) of 2100 nM, a GI50 (HT29 colon) of 665 nM and a TGI (HT29 colon) of 1320 nM. The GI50 (DU-145 prostate) was 749 nM, the TGI (DU-145 prostate) was 1580 nM and the GI50 (K-562 leukemia) was 1000 nM. It also gave a TGI (K-562 leukemia) of 34500 nM, a GI50 (SNB-19 CNS) of 4240 nM and a TGI (SNB-19 CNS) of 9120 nM. The GI50 (A498 renal) was 5110 nM, the TGI (A498 renal) was 9700 nM and the GI50 (OVCAR-4 ovarian) was 880 nM. It also gave a TGI (OVCAR-4 ovarian) of 2450 nM.
